# Source: the NIST ThermoML archive (doi:10.1016/j.fluid.2010.05.001)
# ± gives the expanded uncertainty stated by the source.
# Tests used:
# [1] = 101.33 kPa, Liquid, Vibrating tube method
# [2] = xn = mol fraction of the nth substance listed; conditions: 101 kPa, Liquid, Vibrating tube method
compound,measurement,setting,value
CC1CCCCN1 (stereo unspecified) [2-methylpiperidine],mass density,[1]; 288.15 K,846.703 ± 0.24 kg/m3
same,molar volume,[1]; 288.15 K,0.0001171 ± 9e-08 m3/mol
same,mass density,[1]; 298.15 K,835.787 ± 0.24 kg/m3
same,molar volume,[1]; 298.15 K,0.0001187 ± 9e-08 m3/mol
same,mass density,[1]; 308.15 K,826.08 ± 0.24 kg/m3
same,molar volume,[1]; 308.15 K,0.0001201 ± 9e-08 m3/mol
same,mass density,[1]; 318.15 K,817.349 ± 0.24 kg/m3
same,molar volume,[1]; 318.15 K,0.0001213 ± 9e-08 m3/mol
same,mass density,[1]; 328.15 K,809.08 ± 0.24 kg/m3
same,molar volume,[1]; 328.15 K,0.0001226 ± 9e-08 m3/mol
same,mass density,[1]; 338.15 K,801.96 ± 0.24 kg/m3
same,molar volume,[1]; 338.15 K,0.0001237 ± 9e-08 m3/mol
CN1CCCCC1 [N-methylpiperidine] + O,mass density,"[2]; 288.15 K, x1 = 0.0101",994.829 ± 0.29 kg/m3
same,mass density,"[2]; 288.15 K, x1 = 0.0728",966.82 ± 0.29 kg/m3
same,mass density,"[2]; 288.15 K, x1 = 0.0971",957.332 ± 0.25 kg/m3
same,mass density,"[2]; 288.15 K, x1 = 0.1499",939.294 ± 0.22 kg/m3
same,mass density,"[2]; 288.15 K, x1 = 0.2452",913.306 ± 0.2 kg/m3
same,mass density,"[2]; 288.15 K, x1 = 0.3359",895.82 ± 0.19 kg/m3
same,mass density,"[2]; 288.15 K, x1 = 0.3895",886.349 ± 0.18 kg/m3
same,mass density,"[2]; 288.15 K, x1 = 0.55",863.074 ± 0.2 kg/m3
same,mass density,"[2]; 288.15 K, x1 = 0.66",850.384 ± 0.2 kg/m3
same,mass density,"[2]; 288.15 K, x1 = 0.7",846.317 ± 0.21 kg/m3
same,mass density,"[2]; 288.15 K, x1 = 0.8",836.071 ± 0.22 kg/m3
same,mass density,"[2]; 288.15 K, x1 = 0.9",828.075 ± 0.23 kg/m3
same,mass density,"[2]; 298.15 K, x1 = 0.0133",990.926 ± 0.29 kg/m3
same,mass density,"[2]; 298.15 K, x1 = 0.0248",985.215 ± 0.31 kg/m3
same,mass density,"[2]; 298.15 K, x1 = 0.0299",982.27 ± 0.24 kg/m3
same,mass density,"[2]; 298.15 K, x1 = 0.0728",960.309 ± 0.32 kg/m3
same,mass density,"[2]; 298.15 K, x1 = 0.0971",949.172 ± 0.25 kg/m3
same,mass density,"[2]; 298.15 K, x1 = 0.19",917.46 ± 0.23 kg/m3
same,mass density,"[2]; 298.15 K, x1 = 0.2452",903.811 ± 0.19 kg/m3
same,mass density,"[2]; 298.15 K, x1 = 0.3359",884.947 ± 0.19 kg/m3
same,mass density,"[2]; 298.15 K, x1 = 0.4036",873.347 ± 0.19 kg/m3
same,mass density,"[2]; 298.15 K, x1 = 0.453",865.779 ± 0.19 kg/m3
same,mass density,"[2]; 298.15 K, x1 = 0.4767",862.238 ± 0.19 kg/m3
same,mass density,"[2]; 298.15 K, x1 = 0.505",858.158 ± 0.19 kg/m3
same,mass density,"[2]; 298.15 K, x1 = 0.595",846.184 ± 0.2 kg/m3
same,mass density,"[2]; 298.15 K, x1 = 0.6987",835.141 ± 0.21 kg/m3
same,mass density,"[2]; 298.15 K, x1 = 0.7907",826.047 ± 0.22 kg/m3
same,mass density,"[2]; 298.15 K, x1 = 0.8822",819.375 ± 0.23 kg/m3
same,mass density,"[2]; 308.15 K, x1 = 0.0133",987.229 ± 0.3 kg/m3
same,mass density,"[2]; 308.15 K, x1 = 0.0153",986.286 ± 0.3 kg/m3
same,mass density,"[2]; 308.15 K, x1 = 0.0248",980.469 ± 0.4 kg/m3
same,mass density,"[2]; 308.15 K, x1 = 0.0299",976.97 ± 0.42 kg/m3
same,mass density,"[2]; 308.15 K, x1 = 0.0728",952.068 ± 0.35 kg/m3
same,mass density,"[2]; 308.15 K, x1 = 0.0971",941.377 ± 0.29 kg/m3
same,mass density,"[2]; 308.15 K, x1 = 0.1972",908.857 ± 0.2 kg/m3
same,mass density,"[2]; 308.15 K, x1 = 0.391",866.58 ± 0.2 kg/m3
same,mass density,"[2]; 308.15 K, x1 = 0.4972",849.931 ± 0.19 kg/m3
same,mass density,"[2]; 308.15 K, x1 = 0.57",840.165 ± 0.19 kg/m3
same,mass density,"[2]; 308.15 K, x1 = 0.6987",825.724 ± 0.21 kg/m3
same,mass density,"[2]; 308.15 K, x1 = 0.78",818.342 ± 0.21 kg/m3
same,mass density,"[2]; 318.15 K, x1 = 0.00418",987.683 ± 0.34 kg/m3
same,mass density,"[2]; 318.15 K, x1 = 0.00896",985.125 ± 0.35 kg/m3
same,mass density,"[2]; 318.15 K, x1 = 0.0153",981.488 ± 0.36 kg/m3
same,mass density,"[2]; 318.15 K, x1 = 0.018",979.939 ± 0.41 kg/m3
same,mass density,"[2]; 318.15 K, x1 = 0.02",978.288 ± 0.41 kg/m3
same,mass density,"[2]; 318.15 K, x1 = 0.15",912.237 ± 0.32 kg/m3
same,mass density,"[2]; 318.15 K, x1 = 0.1972",896.689 ± 0.21 kg/m3
same,mass density,"[2]; 318.15 K, x1 = 0.3",874.067 ± 0.2 kg/m3
same,mass density,"[2]; 318.15 K, x1 = 0.4972",840.492 ± 0.19 kg/m3
same,mass density,"[2]; 318.15 K, x1 = 0.66",821.213 ± 0.2 kg/m3
same,mass density,"[2]; 318.15 K, x1 = 0.85",804 ± 0.23 kg/m3
same,mass density,"[2]; 328.15 K, x1 = 0.00418",983.308 ± 0.37 kg/m3
same,mass density,"[2]; 328.15 K, x1 = 0.00896",980.507 ± 0.37 kg/m3
same,mass density,"[2]; 328.15 K, x1 = 0.01",979.617 ± 0.37 kg/m3
same,mass density,"[2]; 328.15 K, x1 = 0.0133",977.934 ± 0.33 kg/m3
same,mass density,"[2]; 328.15 K, x1 = 0.3823",848.444 ± 0.25 kg/m3
same,mass density,"[2]; 328.15 K, x1 = 0.545",824.697 ± 0.19 kg/m3
same,mass density,"[2]; 328.15 K, x1 = 0.7049",807.305 ± 0.21 kg/m3
same,mass density,"[2]; 328.15 K, x1 = 0.795",800.206 ± 0.21 kg/m3
same,mass density,"[2]; 328.15 K, x1 = 0.945",790.511 ± 0.24 kg/m3
CN1CCCCC1 [N-methylpiperidine],mass density,[1]; 288.15 K,822.237 ± 0.24 kg/m3
same,molar volume,[1]; 288.15 K,0.0001206 ± 4e-08 m3/mol
same,mass density,[1]; 298.15 K,810.887 ± 0.24 kg/m3
same,molar volume,[1]; 298.15 K,0.0001223 ± 5e-08 m3/mol
same,mass density,[1]; 308.15 K,803.846 ± 0.24 kg/m3
same,molar volume,[1]; 308.15 K,0.0001234 ± 5e-08 m3/mol
same,mass density,[1]; 318.15 K,796.931 ± 0.24 kg/m3
same,molar volume,[1]; 318.15 K,0.0001244 ± 5e-08 m3/mol
same,mass density,[1]; 328.15 K,785.64 ± 0.24 kg/m3
same,molar volume,[1]; 328.15 K,0.0001262 ± 5e-08 m3/mol
same,mass density,[1]; 338.15 K,781.618 ± 0.24 kg/m3
same,molar volume,[1]; 338.15 K,0.0001269 ± 5e-08 m3/mol
CC1CCCCN1 (stereo unspecified) [2-methylpiperidine] + O,mass density,"[2]; 288.15 K, x1 = 0.022",992.158 ± 0.24 kg/m3
same,mass density,"[2]; 288.15 K, x1 = 0.0488",982.491 ± 0.24 kg/m3
same,mass density,"[2]; 288.15 K, x1 = 0.0966",965.22 ± 0.22 kg/m3
same,mass density,"[2]; 288.15 K, x1 = 0.1901",940.03 ± 0.19 kg/m3
same,mass density,"[2]; 288.15 K, x1 = 0.3019",918.147 ± 0.18 kg/m3
same,mass density,"[2]; 288.15 K, x1 = 0.4006",904.274 ± 0.18 kg/m3
same,mass density,"[2]; 288.15 K, x1 = 0.47",896.239 ± 0.18 kg/m3
same,mass density,"[2]; 288.15 K, x1 = 0.59",883.489 ± 0.19 kg/m3
same,mass density,"[2]; 288.15 K, x1 = 0.685",874.59 ± 0.2 kg/m3
same,mass density,"[2]; 288.15 K, x1 = 0.775",866.186 ± 0.21 kg/m3
same,mass density,"[2]; 288.15 K, x1 = 0.813",863.581 ± 0.22 kg/m3
same,mass density,"[2]; 298.15 K, x1 = 0.0506",976.147 ± 0.27 kg/m3
same,mass density,"[2]; 298.15 K, x1 = 0.0951",957.78 ± 0.22 kg/m3
same,mass density,"[2]; 298.15 K, x1 = 0.1955",930.75 ± 0.2 kg/m3
same,mass density,"[2]; 298.15 K, x1 = 0.288",911.236 ± 0.18 kg/m3
same,mass density,"[2]; 298.15 K, x1 = 0.3958",894.275 ± 0.18 kg/m3
same,mass density,"[2]; 298.15 K, x1 = 0.45",886.977 ± 0.18 kg/m3
same,mass density,"[2]; 298.15 K, x1 = 0.4708",884.952 ± 0.17 kg/m3
same,mass density,"[2]; 298.15 K, x1 = 0.5925",871.352 ± 0.19 kg/m3
same,mass density,"[2]; 298.15 K, x1 = 0.7",860.793 ± 0.2 kg/m3
same,mass density,"[2]; 298.15 K, x1 = 0.8043",851.545 ± 0.21 kg/m3
same,mass density,"[2]; 308.15 K, x1 = 0.0506",969.86 ± 0.28 kg/m3
same,mass density,"[2]; 308.15 K, x1 = 0.0951",951.024 ± 0.23 kg/m3
same,mass density,"[2]; 308.15 K, x1 = 0.1955",921.38 ± 0.2 kg/m3
same,mass density,"[2]; 308.15 K, x1 = 0.288",902.606 ± 0.18 kg/m3
same,mass density,"[2]; 308.15 K, x1 = 0.388",886.089 ± 0.18 kg/m3
same,mass density,"[2]; 308.15 K, x1 = 0.463",875.982 ± 0.18 kg/m3
same,mass density,"[2]; 308.15 K, x1 = 0.585",861.756 ± 0.19 kg/m3
same,mass density,"[2]; 308.15 K, x1 = 0.6501",855.347 ± 0.2 kg/m3
same,mass density,"[2]; 318.15 K, x1 = 0.0506",963.421 ± 0.29 kg/m3
same,mass density,"[2]; 318.15 K, x1 = 0.0951",943.575 ± 0.24 kg/m3
same,mass density,"[2]; 318.15 K, x1 = 0.1955",912.95 ± 0.21 kg/m3
same,mass density,"[2]; 318.15 K, x1 = 0.288",893.567 ± 0.18 kg/m3
same,mass density,"[2]; 318.15 K, x1 = 0.388",876.681 ± 0.18 kg/m3
same,mass density,"[2]; 318.15 K, x1 = 0.463",866.663 ± 0.18 kg/m3
same,mass density,"[2]; 318.15 K, x1 = 0.585",852.312 ± 0.19 kg/m3
same,mass density,"[2]; 318.15 K, x1 = 0.6501",846.574 ± 0.2 kg/m3
same,mass density,"[2]; 328.15 K, x1 = 0.05",957.601 ± 0.3 kg/m3
same,mass density,"[2]; 328.15 K, x1 = 0.0982",935.269 ± 0.32 kg/m3
same,mass density,"[2]; 328.15 K, x1 = 0.3019",883.044 ± 0.2 kg/m3
same,mass density,"[2]; 328.15 K, x1 = 0.4006",867.078 ± 0.18 kg/m3
same,mass density,"[2]; 328.15 K, x1 = 0.4585",859.202 ± 0.18 kg/m3
same,mass density,"[2]; 328.15 K, x1 = 0.5699",846.009 ± 0.19 kg/m3
same,mass density,"[2]; 328.15 K, x1 = 0.6591",836.942 ± 0.2 kg/m3
same,mass density,"[2]; 328.15 K, x1 = 0.775",826.192 ± 0.21 kg/m3
same,mass density,"[2]; 338.15 K, x1 = 0.0951",926.141 ± 0.23 kg/m3
same,mass density,"[2]; 338.15 K, x1 = 0.1901",897.2 ± 0.2 kg/m3
same,mass density,"[2]; 338.15 K, x1 = 0.3019",873.469 ± 0.19 kg/m3
same,mass density,"[2]; 338.15 K, x1 = 0.365",863.604 ± 0.18 kg/m3
same,mass density,"[2]; 338.15 K, x1 = 0.4585",850.39 ± 0.18 kg/m3
same,mass density,"[2]; 338.15 K, x1 = 0.5925",834.463 ± 0.19 kg/m3
same,mass density,"[2]; 338.15 K, x1 = 0.8043",816.519 ± 0.22 kg/m3
